Activity calls are given as the source filed them. How the calls were made is not given here. Where only a bound is given, the exact number is not on record here.

By IC50 is commonly meant the concentration that gives 50% inhibition.

This assay deals with Perilipin-5 (Homo sapiens) + 1-acylglycerol-3-phosphate O-acyltransferase ABHD5 (Homo sapiens) (UniProt Q00G26+Q8WTS1). In words: blockers of ABHD5 binding to perilipin-5 – biochemical, luminescence, dose response (AID 651677). The following applies: ABHD5-PLIN5 interaction.
Perilipin-5 (Homo sapiens) + 1-acylglycerol-3-phosphate O-acyltransferase ABHD5 (Homo sapiens), sequence (Q00G26 whole entry, looked up): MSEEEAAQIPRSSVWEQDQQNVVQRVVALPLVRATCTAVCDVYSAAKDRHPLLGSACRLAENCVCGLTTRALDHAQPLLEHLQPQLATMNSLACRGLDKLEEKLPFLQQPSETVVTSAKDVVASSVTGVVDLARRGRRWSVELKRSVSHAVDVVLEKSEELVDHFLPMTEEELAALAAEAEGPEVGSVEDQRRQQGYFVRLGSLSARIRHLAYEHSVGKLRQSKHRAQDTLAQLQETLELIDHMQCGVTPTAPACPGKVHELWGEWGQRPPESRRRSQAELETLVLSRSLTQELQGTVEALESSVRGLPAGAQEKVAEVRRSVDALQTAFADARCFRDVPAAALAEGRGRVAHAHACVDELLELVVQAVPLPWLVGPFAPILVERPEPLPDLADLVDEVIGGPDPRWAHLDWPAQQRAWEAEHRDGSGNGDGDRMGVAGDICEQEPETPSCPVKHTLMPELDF
Perilipin-5 (Homo sapiens) + 1-acylglycerol-3-phosphate O-acyltransferase ABHD5 (Homo sapiens), sequence (Q8WTS1 whole entry, looked up): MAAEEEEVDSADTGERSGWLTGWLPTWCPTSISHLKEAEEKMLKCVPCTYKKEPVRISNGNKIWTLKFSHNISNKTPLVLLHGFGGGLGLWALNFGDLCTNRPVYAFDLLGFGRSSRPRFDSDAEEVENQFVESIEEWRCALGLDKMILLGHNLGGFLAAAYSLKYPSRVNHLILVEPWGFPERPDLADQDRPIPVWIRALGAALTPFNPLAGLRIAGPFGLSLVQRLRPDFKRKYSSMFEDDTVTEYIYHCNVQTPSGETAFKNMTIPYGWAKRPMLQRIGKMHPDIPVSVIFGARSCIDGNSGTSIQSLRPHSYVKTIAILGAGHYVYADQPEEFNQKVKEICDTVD
With `COc1ccc(-c2cc(N)n(S(=O)(=O)c3c(F)c(F)c(F)c(F)c3F)n2)cc1OC`, the IC50 is 6.83 µM.
Then `O=C(CF)N(O)c1ccc(C=Cc2ccccc2)cc1`, with > 39.9 µM (inactive).
With `COc1cc2c(cc1OC)C(C)N(CCc1ccc(Cl)cc1)CC2` (centres undefined), the IC50 entry was “inactive”.
As to `Cc1ccc2nc3cc([N+](=O)[O-])cc([N+](=O)[O-])c3cc2c1`, the IC50 is 0.6 µM.
As for `CC(C)(C)NC(=O)C(c1ccncc1)n1c(=O)c(-c2ccco2)nc2ccccc21` (centres undefined), the figure is 3.66 µM; as for `COCCNC(=O)/C(C#N)=C/c1cccc(/C=C(\C#N)C(=O)NCCOC)c1`, 0.727 µM; as for `CCN(CC)CCNC(=O)c1ccc(NC(=O)c2cn(-c3ccccc3)nc2-c2cccs2)cc1`, “inactive”.
As for `CCN1C/C(=C/c2ccc(OC)c(O)c2)C(=O)/C(=C/c2ccc(OC)c(O)c2)C1`, the figure is 5.66 µM; as for `COc1ccc(C)c2sc(N(CCN(C)C)C(=O)/C=C/c3cccs3)nc12`, 9.91 µM.
Then `O=[N+]([O-])/C=C/c1cn(Cc2ccc(F)cc2)c2ccccc12`, with 3.36 µM; and `O=C(/C=C/c1ccc(NC(=O)c2ccccc2-c2ccccc2C(=O)O)cc1)c1ccccc1`, with 7.14 µM.
`CC(=O)Oc1c(Cl)cc(N(C(C)=O)S(=O)(=O)c2ccccc2)c2ccccc12`: the IC50 is 6.55 µM.
As to `CSc1nnc(NC(=O)c2nc(S(=O)(=O)Cc3ccccc3)ncc2Cl)s1`, the IC50 was 3.83 µM.
Turning to `CCOC1=CC2=C(C(=O)C(Cl)=CC2=O)[C@@H]2CN(S(=O)(=O)c3ccc(C)cc3)[C@@H](c3ccccc3)[C@H]12`, the IC50 is 0.941 µM.
In the case of `O=C(NCc1ccccc1)C(c1cc2ccccc2o1)n1c(=O)c(-c2ccco2)nc2ccccc21` (centres undefined), the IC50 was 2.42 µM.
`O=C(/C=C/Sc1ccccc1)c1ccc(Cl)cc1`: the IC50 is 3.38 µM.
Then `COc1cccc2sc(N(CCCN(C)C)C(=O)COc3ccc(Cl)cc3)nc12`, with “inactive”; and `CCN1/C(=C/C=C/c2oc3ccc(-c4ccccc4)cc3[n+]2CC)Oc2ccc(-c3ccccc3)cc21`, with 1.03 µM.
As to `COc1cc(OC)cc(C(=O)NC(=S)N(Cc2ccccc2)C(C)C)c1`, the IC50 entry was “inactive”.
Then `CCOc1cc(N)c(Cl)cc1C(=O)NCC1CN(Cc2ccc(F)cc2)CCO1` (centres undefined), with 2.5 µM; and `CCC(C(=O)OCCN(CC)CC)c1ccccc1` (centres undefined), with 2.55 µM.
With `CCN(CC)CCOc1ccc(/C(=C(\Cl)c2ccccc2)c2ccccc2)cc1`, the IC50 is 2.47 µM.
Then `CC1CCN(S(=O)(=O)c2ccc(NC(=O)Cc3ccccc3)cc2)CC1`, with 9.47 µM; and `CC1=CC(C)(C)Nc2ccc(OC(=O)CN3C(=O)C4CCCCC4C3=O)cc21` (centres undefined), with 2.5 µM.
Regarding `CCCCOC(=O)Nc1cc(C(=O)OC)ccc1C(=O)OC`, the IC50 was 6.7 µM.
Then `COc1ccc(NC(=O)C(c2ccnc3ccccc23)n2c(=O)c(-c3ccco3)nc3ccccc32)cc1` (centres undefined), with 8.17 µM; and `CC(O)CC(=O)OC[C@]12CC[C@H]3[C@@](C)(CC[C@H]4C(C)(C)CCC[C@]34C)[C@@H]1CC(C1=CC(=O)OC1O)O2` (some centres undefined), with 0.857 µM.
Take `CCOC(=O)C1CCCN(C(=O)c2cc(Nc3ccc(OC)cc3)nc3ccccc23)C1` (centres undefined): the IC50 entry is “inactive”.
As for `CCC1(C)N=C(c2ccc3c(c2)OCO3)CC(c2ccccc2O)N1` (centres undefined), the figure is 1.57 µM.
As for `O=c1[nH]c(C2CCN(S(=O)(=O)c3ccc(F)cc3)CC2)nc2c1nnn2Cc1ccc2c(c1)OCCO2`, the entry is “inactive”; as for `Cc1ccc(C(=O)/C=C/c2cc(Br)cc(Br)c2O)o1`, 5.54 µM; as for `CC(C)(C)NC(=O)C(c1ccc(C#N)cc1)n1c(=O)c(-c2ccco2)nc2ccccc21` (centres undefined), 1.85 µM.
Turning to `CCCCCNC(=O)C(c1ccc(OC)cc1)n1c(=O)c(-c2ccco2)nc2ccccc21` (centres undefined), the IC50 was 2.18 µM.
As for `Cc1cccc(C)c1NC(=O)C(c1ccccc1F)n1c(=O)c(-c2ccco2)nc2ccccc21` (centres undefined), the figure is 2.73 µM; as for `CCc1nnc(NC(=O)c2nc(S(=O)(=O)Cc3ccccc3)ncc2Cl)s1`, 4.14 µM.
Regarding `O=C(NC1CCCCC1)C(C1CC1)n1c(=O)c(-c2ccco2)nc2ccccc21` (centres undefined), the IC50 is 2.39 µM.
Consider `O=C1NC(=O)N(Cc2ccccc2)C(=O)/C1=C\C=C\c1ccco1`, for which the IC50 is 1.32 µM.
Then `CC1CCN(S(=O)(=O)c2ccc(NC(=O)Cc3cccs3)cc2)CC1`, with “inactive”; and `CC1=CC(C)(C)Nc2ccc(OC(=O)CN3C(=O)CCC3=O)cc21`, with 2.2 µM.
Then `O=C(O)CC(O)(CC(=O)O)C(=O)O`, with 5.63 µM; and `CC(=O)C1=C(c2cccc([N+](=O)[O-])c2)N(C(C)=O)n2c(C)nnc2S1`, with 2.86 µM.
As for `O=C(NC1CCCCC1)C(c1ccccc1)n1c(=O)c(-c2ccco2)nc2ccccc21` (centres undefined), the IC50 was 0.67 µM.
Then `N#Cc1ccccc1OCc1cn(CC(=O)c2ccc(O)cc2)nn1`, with 3.68 µM; and `N#Cc1ccc(C(C(=O)NC2CCCCC2)n2c(=O)c(-c3ccco3)nc3ccccc32)cc1` (centres undefined), with 1.88 µM.
In the case of `Cc1cccc(C)c1NC(=O)C(c1ccnc2ccccc12)n1c(=O)c(-c2ccco2)nc2ccccc21` (centres undefined), the IC50 is 3.55 µM.
As to `Cc1cccc(NC(=O)CSc2nnc(-c3ccco3)c(-c3ccco3)n2)c1`, the IC50 was 1.05 µM.
Then `COc1ccc(NC(=O)C(c2ccccc2)n2c(=O)c(-c3ccco3)nc3ccccc32)cc1` (centres undefined), with 8.79 µM.
Then `COc1ccc(C(C(=O)NC2CCCCC2)n2c(=O)c(-c3ccco3)nc3ccccc32)cc1` (centres undefined), with 1.14 µM; and `CN(C)CCCNC(=O)c1ccc(-c2nc(-c3ccc(Cl)cc3)cs2)cc1`, with “inactive”; and `CCCCNC(=O)Nc1ccc2c(c1)N(C)C(=O)c1ccccc1S2`, with 4.08 µM.
For the molecule `CCCCn1c(SCC(=O)NCc2ccco2)nnc1-c1ccoc1C`, the IC50 was 4.82 µM.
Then `Cc1cc(C)c(NC(=O)CN2CCN3CCCC3C2)c(C)c1` (centres undefined), with 9.27 µM; and `CC(=O)Oc1c(Cl)c(N2CCOCC2)c(OC(C)=O)c2ccccc12`, with 4.28 µM; and `O=c1[nH]c(C2CCN(S(=O)(=O)c3ccc(S(=O)(=O)NC4CC4)cc3)CC2)nc2c1nnn2Cc1ccc(F)cc1`, with 5.66 µM.

For the origin of these results see PubChem BioAssay AID651677 (The Scripps Research Institute Molecular Screening Center, 2012).
